Measured values published in the NIST ThermoML archive (doi:10.1021/je800110r).
“And” between values parts separate entries of the source, which are not always exact repeats. Identical values can stand only once.

Conditions: 323.15 K, Liquid, Vibrating tube method

CCCCCCCCCC [decane]
Conditions	mass density
979 kPa	707.8 kg/m3
1136 kPa	707.9 kg/m3
1175 kPa	707.9 kg/m3
2516 kPa	709.2 kg/m3
2603 kPa	709.2 kg/m3
2658 kPa	709.3 kg/m3
2678 kPa	709.4 kg/m3
2691 kPa	709.3 kg/m3
2692 kPa	709.2 kg/m3 and 709.4 kg/m3
2703 kPa	709.4 kg/m3
2822 kPa	709.4 kg/m3
2861 kPa	709.4 kg/m3
2878 kPa	709.5 kg/m3
2894 kPa	709.6 kg/m3
2913 kPa	709.5 kg/m3
2936 kPa	709.5 kg/m3
2951 kPa	709.6 kg/m3
2967 kPa	709.5 kg/m3
2987 kPa	709.6 kg/m3
3000 kPa	709.7 kg/m3
3022 kPa	709.6 kg/m3
3044 kPa	709.5 kg/m3
3064 kPa	709.6 kg/m3
3081 kPa	709.7 kg/m3
4273 kPa	710.8 kg/m3
4294 kPa	710.8 kg/m3
4322 kPa	710.8 kg/m3
4342 kPa	710.9 kg/m3
4361 kPa	710.8 kg/m3
4382 kPa	710.8 kg/m3
4423 kPa	710.9 kg/m3
4487 kPa	711 kg/m3
4606 kPa	711 kg/m3
4625 kPa	711.1 kg/m3
4647 kPa	711.1 kg/m3
4668 kPa	711.2 kg/m3
4685 kPa	711.2 kg/m3
4861 kPa	711.3 kg/m3
4889 kPa	711.4 kg/m3
4922 kPa	711.3 kg/m3
5651 kPa	712 kg/m3
5805 kPa	712.2 kg/m3
5822 kPa	712.1 kg/m3
5843 kPa	712.2 kg/m3
5857 kPa	712.3 kg/m3
5874 kPa	712.2 kg/m3
5887 kPa	712.2 kg/m3
6263 kPa	712.6 kg/m3
6285 kPa	712.6 kg/m3
6300 kPa	712.6 kg/m3
6321 kPa	712.5 kg/m3
6341 kPa	712.7 kg/m3
6363 kPa	712.7 kg/m3
6380 kPa	712.6 kg/m3
6398 kPa	712.7 kg/m3
6436 kPa	712.7 kg/m3
6474 kPa	712.7 kg/m3
6492 kPa	712.8 kg/m3
6514 kPa	712.7 kg/m3
6635 kPa	712.8 kg/m3
6654 kPa	712.9 kg/m3
6678 kPa	712.9 kg/m3
6703 kPa	713 kg/m3
6916 kPa	713 kg/m3
6934 kPa	713.1 kg/m3
6961 kPa	713.2 kg/m3
6979 kPa	713.1 kg/m3
7007 kPa	713.1 kg/m3
7029 kPa	713.3 kg/m3
7057 kPa	713.3 kg/m3
7082 kPa	713.3 kg/m3
7102 kPa	713.2 kg/m3
7118 kPa	713.3 kg/m3
7137 kPa	713.4 kg/m3
7158 kPa	713.4 kg/m3
7174 kPa	713.4 kg/m3
7190 kPa	713.4 kg/m3
7203 kPa	713.3 kg/m3
7224 kPa	713.3 kg/m3
7238 kPa	713.4 kg/m3
7254 kPa	713.5 kg/m3
7271 kPa	713.5 kg/m3
7304 kPa	713.4 kg/m3
7318 kPa	713.5 kg/m3
7339 kPa	713.4 kg/m3
7354 kPa	713.4 kg/m3
7368 kPa	713.5 kg/m3
8395 kPa	714.3 kg/m3
8425 kPa	714.4 kg/m3
8563 kPa	714.5 kg/m3
8605 kPa	714.6 kg/m3
9325 kPa	715.2 kg/m3
9451 kPa	715.3 kg/m3
10321 kPa	715.9 kg/m3
10344 kPa	716 kg/m3
10548 kPa	716.3 kg/m3
11286 kPa	716.8 kg/m3
11307 kPa	716.8 kg/m3
11331 kPa	716.8 kg/m3
11359 kPa	716.8 kg/m3
11377 kPa	716.9 kg/m3
11401 kPa	717 kg/m3
11467 kPa	717 kg/m3
12096 kPa	717.5 kg/m3
12122 kPa	717.5 kg/m3
12147 kPa	717.6 kg/m3
12173 kPa	717.6 kg/m3
12190 kPa	717.7 kg/m3
12213 kPa	717.5 kg/m3
12230 kPa	717.6 kg/m3
12257 kPa	717.6 kg/m3
12397 kPa	717.7 kg/m3
12417 kPa	717.7 kg/m3
12435 kPa	717.8 kg/m3
12457 kPa	717.8 kg/m3
12472 kPa	717.8 kg/m3
12495 kPa	717.8 kg/m3
12510 kPa	717.9 kg/m3
12528 kPa	717.8 kg/m3
12854 kPa	718.2 kg/m3
12869 kPa	718.2 kg/m3
12887 kPa	718.1 kg/m3
12906 kPa	718.2 kg/m3
12919 kPa	718.1 kg/m3
12964 kPa	718.2 kg/m3
12977 kPa	718.3 kg/m3
12991 kPa	718.2 kg/m3
13012 kPa	718.2 kg/m3
13060 kPa	718.2 kg/m3
13843 kPa	718.9 kg/m3
13863 kPa	718.9 kg/m3
13877 kPa	718.9 kg/m3
13892 kPa	719 kg/m3
13909 kPa	719 kg/m3
13924 kPa	719 kg/m3
13946 kPa	719 kg/m3
13966 kPa	719 kg/m3
13981 kPa	719.1 kg/m3
14001 kPa	719 kg/m3
14021 kPa	719 kg/m3
14043 kPa	719 kg/m3
14066 kPa	719.2 kg/m3
14084 kPa	719.2 kg/m3
14099 kPa	719.1 kg/m3
14124 kPa	719.2 kg/m3
14140 kPa	719.3 kg/m3
14160 kPa	719.2 kg/m3
14173 kPa	719.2 kg/m3
14274 kPa	719.2 kg/m3
14317 kPa	719.3 kg/m3
14348 kPa	719.5 kg/m3
14364 kPa	719.3 kg/m3
14385 kPa	719.4 kg/m3
14404 kPa	719.4 kg/m3
14424 kPa	719.4 kg/m3
14622 kPa	719.6 kg/m3
14631 kPa	719.5 kg/m3
14647 kPa	719.5 kg/m3
14657 kPa	719.7 kg/m3
14679 kPa	719.6 kg/m3
14688 kPa	719.6 kg/m3
14701 kPa	719.6 kg/m3
14711 kPa	719.7 kg/m3
14725 kPa	719.7 kg/m3
14741 kPa	719.6 kg/m3
14753 kPa	719.7 kg/m3
15015 kPa	719.9 kg/m3
15023 kPa	719.9 kg/m3
15033 kPa	719.8 kg/m3
15047 kPa	720 kg/m3
15058 kPa	719.9 kg/m3
15068 kPa	719.9 kg/m3
15085 kPa	720 kg/m3
15095 kPa	719.9 kg/m3
15112 kPa	720 kg/m3
15120 kPa	719.9 kg/m3
15130 kPa	719.9 kg/m3
15143 kPa	720.1 kg/m3
15159 kPa	720 kg/m3
15170 kPa	720 kg/m3
15184 kPa	720 kg/m3
15196 kPa	720.1 kg/m3
15211 kPa	720 kg/m3
15222 kPa	720 kg/m3
15237 kPa	720 kg/m3
15249 kPa	720 kg/m3
15266 kPa	720.1 kg/m3
15275 kPa	720.1 kg/m3
15286 kPa	720 kg/m3
15303 kPa	720.2 kg/m3
15312 kPa	720.1 kg/m3
15326 kPa	720.1 kg/m3
15340 kPa	720.2 kg/m3
15388 kPa	720.2 kg/m3
15397 kPa	720.2 kg/m3
15411 kPa	720.2 kg/m3
15423 kPa	720.2 kg/m3
15686 kPa	720.4 kg/m3
15697 kPa	720.5 kg/m3
15712 kPa	720.4 kg/m3
15721 kPa	720.5 kg/m3
16291 kPa	721 kg/m3
16333 kPa	721 kg/m3
16345 kPa	721.1 kg/m3
16357 kPa	720.9 kg/m3
16371 kPa	721.1 kg/m3
16383 kPa	720.9 kg/m3
16398 kPa	721.1 kg/m3
16410 kPa	720.9 kg/m3
16426 kPa	721.1 kg/m3
16436 kPa	721.1 kg/m3
16448 kPa	721.1 kg/m3
16460 kPa	721.2 kg/m3
16473 kPa	721 kg/m3
16595 kPa	721.1 kg/m3
16627 kPa	721.2 kg/m3
16637 kPa	721.2 kg/m3
16673 kPa	721.2 kg/m3
16691 kPa	721.2 kg/m3
16708 kPa	721.1 kg/m3
16721 kPa	721.3 kg/m3
16735 kPa	721.2 kg/m3
16752 kPa	721.2 kg/m3
16764 kPa	721.2 kg/m3
16784 kPa	721.3 kg/m3
16797 kPa	721.3 kg/m3
16817 kPa	721.4 kg/m3
16829 kPa	721.3 kg/m3
16849 kPa	721.4 kg/m3
16864 kPa	721.5 kg/m3
16876 kPa	721.4 kg/m3
16889 kPa	721.3 kg/m3
16910 kPa	721.3 kg/m3
16921 kPa	721.4 kg/m3
16934 kPa	721.4 kg/m3
16951 kPa	721.4 kg/m3
16964 kPa	721.4 kg/m3
16980 kPa	721.5 kg/m3
16995 kPa	721.4 kg/m3
17043 kPa	721.5 kg/m3
17058 kPa	721.4 kg/m3
17077 kPa	721.6 kg/m3
17095 kPa	721.5 kg/m3
17112 kPa	721.4 kg/m3
17130 kPa	721.6 kg/m3
17141 kPa	721.5 kg/m3
17157 kPa	721.6 kg/m3
17172 kPa	721.4 kg/m3
17190 kPa	721.6 kg/m3
17203 kPa	721.6 kg/m3
17223 kPa	721.6 kg/m3
17241 kPa	721.6 kg/m3
17254 kPa	721.7 kg/m3
17628 kPa	722 kg/m3
18716 kPa	722.8 kg/m3
18779 kPa	722.8 kg/m3
18862 kPa	722.9 kg/m3
18883 kPa	722.8 kg/m3
19079 kPa	723 kg/m3
19095 kPa	723.2 kg/m3
19120 kPa	723 kg/m3
19140 kPa	723.1 kg/m3
19159 kPa	723.1 kg/m3
19176 kPa	723.2 kg/m3
19198 kPa	723.2 kg/m3
19220 kPa	723.2 kg/m3
19240 kPa	723.2 kg/m3
19286 kPa	723.3 kg/m3
19330 kPa	723.3 kg/m3
19527 kPa	723.5 kg/m3
19547 kPa	723.4 kg/m3
19614 kPa	723.5 kg/m3
19699 kPa	723.6 kg/m3
